Source: US20250051375A1, “ANTI-HIV COMPOUNDS” (Gilead Sciences, Inc., priority 2023, published 2025)
≈ marks a conversion by molar mass, not a printed value. Like-named read-outs stand apart in the source and are kept apart here.

What was measured:
[1] = target: bovine intestinal alkaline phosphatase (Bos taurus (Bovine), UniProt P19111); assay: BiALP: conversion by bovine intestinal alkaline phosphatase; assay type: in vitro ADME; conditions: 2 μM substrate, 100 ng/mL iALP, Tris pH 7.8, 37° C., 60 minutes; for [Intermediate A] or [Amprenavir]: parent formed
Outline: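 LC-MS (positive mode) quantified analyte/internal-standard peak area ratios, referenced to 2 μM parent product. This followed a 60 min, 37° C reaction of 2 μM substrate in Tris buffer pH 7.8 (1 mM MgCl2, 1 mM ZnCl2) containing 100 ng/mL iALP or buffer alone, run in triplicate.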

[2] = Solubility in FaSSIF; conditions: 23 °C, pH 6.5, fassif, thermodynamic from solid; for solubility: FaSSIF (pH 6.5) solubility, FaSSIF pH 6.5, dose 5 mg/mL, 2-hour incubation, ambient temperature
Outline: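 Concentration measured by HPLC-UV after solid compound was dosed at 5 mg/mL into pH 6.5 fasted-state simulated intestinal fluid containing taurocholate and lecithin (4:1 molar) and vortexed.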

[3] = test system: HIV-1 IIIB strain; assay: MT-4 HIV Wild Type Virus Infection Assay (IIIB Virus); assay type: cell-based; conditions: Human immunodeficiency virus 1, IIIB, MT4, 120 h, MT-4 cells acutely infected with HIV-1 IIIB, 5 day incubation, Cell-titer glo
Outline: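 MT-4 cells at 2×10^6 cells/ml in RPMI/10% FBS were acutely infected with HIV-1 IIIB for 1 h at 37° C, diluted 25× and added to serially diluted compounds. After 5 days at 37° C, viability read by CellTiter-Glo luminescence; EC50 from dose-response curves.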

[4] = PBS Stability Assay; assay type: physicochemical; conditions: phosphate buffered saline pH 7.4; for half-life at 2 μM: buffer, pH 7.4, 2 μM, read-out: PBS T½
Outline: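 Half-life derives from first-order exponential decline of % compound remaining, quantified by LC-MS analyte/internal-standard peak-area ratio. Compound (2 μM final) sat in pH 7.4 phosphate-buffered saline, with aliquots quenched into acidified acetonitrile containing labetalol from 0 to 120 min.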

Chain of bovine intestinal alkaline phosphatase (P19111 20-506): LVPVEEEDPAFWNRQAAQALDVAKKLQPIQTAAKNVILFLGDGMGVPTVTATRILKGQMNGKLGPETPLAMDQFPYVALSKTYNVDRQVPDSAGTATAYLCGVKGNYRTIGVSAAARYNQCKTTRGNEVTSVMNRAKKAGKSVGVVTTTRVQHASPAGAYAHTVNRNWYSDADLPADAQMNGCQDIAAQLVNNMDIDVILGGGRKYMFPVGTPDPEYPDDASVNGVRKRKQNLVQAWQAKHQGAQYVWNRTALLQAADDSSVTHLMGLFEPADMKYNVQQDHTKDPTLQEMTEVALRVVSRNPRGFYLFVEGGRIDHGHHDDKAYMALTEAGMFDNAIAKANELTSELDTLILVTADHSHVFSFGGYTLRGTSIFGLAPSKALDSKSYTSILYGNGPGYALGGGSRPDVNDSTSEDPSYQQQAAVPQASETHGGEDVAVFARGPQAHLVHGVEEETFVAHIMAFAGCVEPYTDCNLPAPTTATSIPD

SMILES	[Compound] [1] [nM]	solubility at 2 h [2] [µg/mL]	EC50 [3] [nM]	half-life at 2 μM [4] [h]	biALP Intermediate A or [Amprenavir] (% of total) [1]	[Intermediate A] or [Amprenavir] [1] [nM]	solubility [2] [µg/mL]	EC50 ([3]; read-out: EC50) [nM]	PBS T½ ([4]; 2 μM) [h]
COC(=O)N[C@H](C(=O)N[C@@H](Cc1ccc(C#Cc2cnc(N3CC4CCC(C3)N4C3COC3)nc2)cc1)[C@H](CN(Cc1c(F)cc(-c2ccn(C(F)F)n2)cc1F)NC(=O)[C@@H](NC(=O)OC)C(C)(C)C(F)(F)F)OC(=O)OCOC(=O)CC(C)(C)c1c(CC(=O)N[C@@H](CCC(N)=O)C(=O)O)cc(C)cc1OP(=O)(O)O)C(C)(C)C(F)(F)F [Example 87]	1161.5	4500 (≈ 2670 µM)	3.6	5.41					
COC(=O)N[C@H](C(=O)N[C@@H](Cc1ccc(C#Cc2cnc(N3CC4CCC(C3)N4C3COC3)nc2)cc1)[C@H](CN(Cc1c(F)cc(-c2ccn(C(F)F)n2)cc1F)NC(=O)[C@@H](NC(=O)OC)C(C)(C)C(F)(F)F)OC(=O)OCOC(=O)CC(C)(C)c1c(CC(=O)O)cc(C)cc1OP(=O)(O)O)C(C)(C)C(F)(F)F [Example 20]	1351.2			6.5	48.6 % of total	1276.2	220 (≈ 141 µM)	0.7	
COC(=O)N[C@H](C(=O)N[C@@H](Cc1ccc(C#Cc2cnc(N3CC4CCC(C3)N4C3COC3)nc2)cc1)[C@H](CN(Cc1c(F)cc(-c2ccn(C(F)F)n2)cc1F)NC(=O)[C@@H](NC(=O)OC)C(C)(C)C(F)(F)F)OC(=O)OCOC(=O)CC(C)(C)c1c(CC(=O)NCC(=O)NS(C)(=O)=O)cc(C)cc1OP(=O)(O)O)C(C)(C)C(F)(F)F [Example 22]	1221.6	4720 (≈ 2790 µM)	9.9	6.22	54.6 % of total	1468.7			
COC(=O)N[C@H](C(=O)N[C@@H](Cc1ccc(C#Cc2cnc(N3CC4CCC(C3)N4C3COC3)nc2)cc1)[C@H](CN(Cc1c(F)cc(-c2ccn(C(F)F)n2)cc1F)NC(=O)[C@@H](NC(=O)OC)C(C)(C)C(F)(F)F)OC(=O)CC(C)(C)c1c(CC(=O)N[C@@H](Cc2c[nH]c3ccccc23)C(=O)O)cc(C)cc1OP(=O)(O)O)C(C)(C)C(F)(F)F [Example 48]	2071.6	910 (≈ 545 µM)	201	4.76					
COC(=O)N[C@H](C(=O)N[C@@H](Cc1ccc(C#Cc2cnc(N3CC4CCC(C3)N4C3COC3)nc2)cc1)[C@H](CN(Cc1c(F)cc(-c2ccn(C(F)F)n2)cc1F)NC(=O)[C@@H](NC(=O)OC)C(C)(C)C(F)(F)F)OC(=O)OCOC(=O)CC(C)(C)c1c(CC(=O)NCCS(=O)(=O)O)cc(C)cc1OP(=O)(O)O)C(C)(C)C(F)(F)F [Example 21]	1281.9	4340 (≈ 2610 µM)	3.6		44.7 % of total	1034.6			13.2
COC(=O)N[C@H](C(=O)N[C@@H](Cc1ccc(C#Cc2cnc(N3CC4CCC(C3)N4C3COC3)nc2)cc1)[C@H](CN(Cc1c(F)cc(-c2ccn(C(F)F)n2)cc1F)NC(=O)[C@@H](NC(=O)OC)C(C)(C)C(F)(F)F)OC(=O)CC(C)(C)c1c(CC(=O)NCCOP(=O)(O)O)cc(C)cc1OP(=O)(O)O)C(C)(C)C(F)(F)F [Example 100, (5S,10S,11S,14S)-8-(4-(1-(difluoromethyl)-1H-pyrazol-3-yl)-2,6-difluorobenzyl)-11-(4-((2-(8-(oxetan-3-yl)-3,8-diazabicyclo[3.2.1]octan-3-yl)pyrimidin-5-yl)ethynyl)benzyl)-3,6,13,16-tetraoxo-5,14-bis(1,1,1-trifluoro-2-methylpropan-2-yl)-2,17-dioxa-4,7,8,12,15-pentaazaoctadecan-10-yl 3-methyl-3-(4-methyl-2-(2-oxo-2-((2-(phosphonooxy)ethyl)amino)ethyl)-6-(phosphonooxy)phenyl)butanoate]	1103.4	4450 (≈ 2770 µM)	42.4	5.22					
COC(=O)N[C@H](C(=O)N[C@@H](Cc1ccc(C#Cc2cnc(N3CC4CCC(C3)N4C3COC3)nc2)cc1)[C@H](CN(Cc1c(F)cc(-c2ccn(C(F)F)n2)cc1F)NC(=O)[C@@H](NC(=O)OC)C(C)(C)C(F)(F)F)OC(=O)CC(C)(C)c1c(CC(=O)NCCCC(=O)O)cc(C)cc1OP(=O)(O)O)C(C)(C)C(F)(F)F [Example 91]	2153.3	< 1000	60	6.49					
COC(=O)N[C@H](C(=O)N[C@@H](Cc1ccc(C#Cc2cnc(N3CC4CCC(C3)N4C3COC3)nc2)cc1)[C@H](CN(Cc1c(F)cc(-c2ccn(C(F)F)n2)cc1F)NC(=O)[C@@H](NC(=O)OC)C(C)(C)C(F)(F)F)OC(=O)CC(C)(C)c1c(CC(=O)N(C)CC(=O)O)cc(C)cc1OP(=O)(O)O)C(C)(C)C(F)(F)F [Example 95]	1927.5	4260 (≈ 2740 µM)	99.1	4.22					
COC(=O)N[C@H](C(=O)N[C@@H](Cc1ccc(C#Cc2cnc(N3CC4CCC(C3)N4C3COC3)nc2)cc1)[C@H](CN(Cc1c(F)cc(-c2ccn(C(F)F)n2)cc1F)NC(=O)[C@@H](NC(=O)OC)C(C)(C)C(F)(F)F)OC(=O)CC(C)(C)c1c(CC(=O)N2CC(C(=O)O)CC(C(=O)O)C2)cc(C)cc1OP(=O)(O)O)C(C)(C)C(F)(F)F (stereo partly shown) [Example 67]	1747.2	3160 (≈ 1930 µM)	205	4.32	9.1 % of total	175.4			
COC(=O)N[C@H](C(=O)N[C@@H](Cc1ccc(C#Cc2cnc(N3CC4CCC(C3)N4C3COC3)nc2)cc1)[C@H](CN(Cc1c(F)cc(-c2ccn(C(F)F)n2)cc1F)NC(=O)[C@@H](NC(=O)OC)C(C)(C)C(F)(F)F)OC(=O)CC(C)(C)c1c(CC(=O)N[C@@H](CCC(N)=O)C(=O)O)cc(C)cc1OP(=O)(O)O)C(C)(C)C(F)(F)F [Example 88]	1726.6	4640 (≈ 2880 µM)	42.8	6.16	6 % of total	109.8			
COC(=O)N[C@H](C(=O)N[C@@H](Cc1ccc(C#Cc2cnc(N3CC4CCC(C3)N4C3COC3)nc2)cc1)[C@H](CN(Cc1c(F)cc(-c2ccn(C(F)F)n2)cc1F)NC(=O)[C@@H](NC(=O)OC)C(C)(C)C(F)(F)F)OC(=O)OCOC(=O)CC(C)(C)c1c(CC(=O)N2CC[C@H](C(=O)O)C2)cc(C)cc1OP(=O)(O)O)C(C)(C)C(F)(F)F [Example 75]	1420.1	4170 (≈ 2520 µM)	8.1	4.77					
COC(=O)N[C@H](C(=O)N[C@@H](Cc1ccc(C#Cc2cnc(N3CC4CCC(C3)N4C3COC3)nc2)cc1)[C@H](CN(Cc1c(F)cc(-c2ccn(C(F)F)n2)cc1F)NC(=O)[C@@H](NC(=O)OC)C(C)(C)C(F)(F)F)OC(=O)OCOC(=O)CC(C)(C)c1c(CC(=O)N2CCN(S(N)(=O)=O)CC2)cc(C)cc1OP(=O)(O)O)C(C)(C)C(F)(F)F [Example 85]	1466.1	< 1000	2.4	2.27					
COC(=O)N[C@H](C(=O)N[C@@H](Cc1ccc(C#Cc2cnc(N3CC4CCC(C3)N4C3COC3)nc2)cc1)[C@H](CN(Cc1c(F)cc(-c2ccn(C(F)F)n2)cc1F)NC(=O)[C@@H](NC(=O)OC)C(C)(C)C(F)(F)F)OC(=O)OCOC(=O)CC(C)(C)c1c(OP(=O)(O)O)cc(C(=O)O)cc1C(=O)O)C(C)(C)C(F)(F)F [Example 1]	1318.1			8.74			5060 (≈ 3220 µM)	7.6	
COC(=O)N[C@H](C(=O)N[C@@H](Cc1ccc(C#Cc2cnc(N3CC4CCC(C3)N4C3COC3)nc2)cc1)[C@H](CN(Cc1c(F)cc(-c2ccn(C(F)F)n2)cc1F)NC(=O)[C@@H](NC(=O)OC)C(C)(C)C(F)(F)F)OC(=O)CC(C)(C)c1c(CC(=O)N(CC(=O)O)CC(=O)O)cc(C)cc1OP(=O)(O)O)C(C)(C)C(F)(F)F [Example 106]	1588.2	3920 (≈ 2450 µM)	761	4.52					
COC(=O)N[C@H](C(=O)N[C@@H](Cc1ccc(C#Cc2cnc(N3CC4CCC(C3)N4C3COC3)nc2)cc1)[C@H](CN(Cc1c(F)cc(-c2ccn(C(F)F)n2)cc1F)NC(=O)[C@@H](NC(=O)OC)C(C)(C)C(F)(F)F)OC(=O)OCOC(=O)CC(C)(C)c1c(CC(=O)N[C@@H](CC(=O)O)C(=O)O)cc(C)cc1OP(=O)(O)O)C(C)(C)C(F)(F)F [Example 68]	1478.2	4440 (≈ 2650 µM)	5.9	6.27					
